Laboratory results: patent EP2522328A1, “Use of resveratrol and ascorbyl-2-glucoside” (DSM IP Assets B.V., priority 2011, dated 2012)

Tested on: AZGP1
Assay: Assessment of gene modulation in normal human epidermal melanocytes (NHEM), RT-qPCR on mRNA (PCR array mQPA H-Melanocyte-64)
Type: cell-based
Settings: ascorbyl-2-glucoside 1 mg/ml
Procedure: Normal human epidermal melanocytes were cultivated for 24 hours. […] Cells were cultivated for additional 72 hours. All experimental conditions were performed in triplicate. At the end of the cultivation, the cells were harvested and washed with phosphate buffered saline (PBS) solution and immediately frozen at -80 °C. The expression of selected markers was analyzed using RT-qPCR method on mRNA extracted from cells layer for each treatment condition. The differential expression analysis was performed by PCR arrays of the screening format "mQPA H-Melanocyte-64", which focuses on 64 genes selected for their importance in pigmentation and melanocyte biology. Total RNA was extracted from each sample using TRI-Reagent®. The amount and quality of the RNA was evaluated using a lab-on-a-chip Bioanalyzer (Agilent technologies). Potential contaminants traces of DNA were removed […] The incorporation of fluorescence in amplified DNA was measured continuously during the PCR cycles. […] The value selected for RE calculations is the "output point" (Ct) of the fluorescence curve. For a given marker, the highest is the cycle number; the lowest, is the mRNA quantity. The RE value is expressed in arbitrary units (AU) according to the equation: (((1)/(2)))^NC x 10^6 [formula] Where NC is the number of cycles.

## O=C1O[C@H]([C@@H](O)CO)C(O)=C1O[C@H]1O[C@H](CO)[C@@H](O)[C@H](O)[C@H]1O [Ascorbyl-2-glucoside, 2-O-[…]-D-glucopyranosyl-L-Ascorbic acid]
Homo sapiens, Melanocyte, NHEM cells, 72 hours treatment, resveratrol 5 µg/ml, combination 5 µg/ml + 1 mg/ml, read-out: expression ratio compared to control for the gene AZGP1
  activation at 1000 µg/mL: 3%
Compared to untreated cells, NEHM cells, resveratrol 5 micrograms/ml, combination 5 microg/ml + 1mg/ml
  down-regulation of AZGP1: no significant modulation
